EP1743642A1 (priority 2005, dated 2007)

Tests used:
[1] = In-vivo testing for regulation of triglycerides in blood, diet-induced obese mice (study VI); settings: high fat diet, 30 mg/kg/day p.o., day 28 after beginning of the treatment; p<0.005 vs. vehicle
Description: In a second set of experiments carried out similar to the tests shown above the TG (triglyceride) levels of diet-induced obese mice in blood were determined. Mice receiving a high fat diet were - after a feeding period of […] - either treated p.o. with vehicle (0,5 % HPMC) or with the compound according to example 0 (30 mg/kg/day p.o.). TG levels in blood were determined on day 28 after beginning of the treatment.

[2] = In-vivo testing for regulation of triglycerides in blood, obese mice on high fat diet (study V); design: species or system male mice B6 Lep ob/ob; settings: 30 mg/kg/day po, 14 days
Excerpt: The study was done using six weeks old male mice B6 Lep ob/ob, obtained from Charles River (France). Mice were divided in 3 groups : I (control), II (vehicle), III (example 0).
The animals of the group I received the standard diet (D-12450B, Research Diets, NJ, USA).
The animals of the groups II and III were fed with a High Fat Diet (D-12492, Research Diets, NJ, USA), in both cases for 7 weeks (References 1 and 2).
The animals of the groups III were fed with a High Fat Diet (D-12492, Research Diets, NJ, USA), in both cases for 7 weeks (References 1 and 2).
At the end of the feeding period of 7 weeks, it was started the treatment period (14 days): Group II mice received the vehicle (10 ml/kg/day, po, of the aqueous solution of acacia gum, 5% W/V). Group III was administered with 30 mg/kg/day, po, of the inventive compound 5-(4-chlorophenyl)-1-(2,4-dichlorophenyl)-4,5-dihydro-pyrazole-3-carboxylic acid according to Example 0. Group I didn't received any treatment. The three groups of mice had the same diet than in the previous period.
At the end of the 14 days period of treatment, the blood levels of triglicerides of the animals were determined. […]

[3] = system: cannabinoid receptors; experiment: Mouse tetrad model, antagonistic effect against Win 55212-2; type: in vivo, Male NMRI mice; settings: 5 mg/kg i.v. prior to Win 55212-2 in a dose of 1,25mg/kg i.v.
Excerpt: (§1) Substances with affinity for cannabinoid receptors are known to produce a wide range of pharmacological effects. It is also known that intravenous administration of a substance with affinity for cannabinoid receptors in mice produces analgesia , hypothermia, sedation and catalepsy. Individually, none of these effects can be considered as proof that a tested substance has affinity for cannabinoid-receptors, since all of these effects are common for various classes of centrally active agents. However, substances, which show all of these effects, i.e. substances that are active in this so-called tetrad model are considered to have affinity for the cannabinoid receptors. It has further been shown that cannabinoid receptor antagonists are higly effective in blocking the effects of a cannabinoid agonist in the mouse tetrad model.
(§2) The tetrad model is described, for example, in the publication of A. C. Howlett et al, International Union of Pharmacology XXVII. Classification of Cannabinoid Receptors, Pharmacol Rev 54, 161-202 , 2002 and David R. Compton et al., "In-vivo Characterization of a Specific Cannabinoid Receptor Antagonist (SR141716A) :Inhibition of Tetrahydrocannbinol- induced Responses and Apparent Agonist Activity", J. Pharmacol. Exp. Ther. 277 , 2, 586-594, 1996. The corresponding parts of the description are hereby incorporated by reference.
(§3) Male NMRI mice with a weight of 20-30 g (Harlan, Barcelona, Spain) are used in all of the following experiments.
(§4) Before testing in the behavioral procedures given below, mice are acclimatized to the experimental setting. Pre-Treatment control values are determined for analgesia hot plate latency (in seconds), rectal temperature, sedation and catalepsy.
(§5) In order to determine the agonistic activty of the substance to be tested, the mice are injected intravenously with the substance to be tested or the vehicle alone. 15 minutes after injection, latency in hot plate analgesia is measured.
(§6) Rectal temperature, sedation and catalepsy are measured 20 minutes after injection.
In order to determine the antagonistic activity the identical procedure is used as for the determination of the agonistic effects, but with the difference that the substance to be evaluated for its antagonistic activity is injectected 5 minutes before the intravenous injection of 1.25 mg/kg Win-55,212 a known cannabinoid-receptor agonist.
(§7) The hot plate analgesia is determined according to the method described in Woolfe D. et al. "The evaluation of analgesic action of pethidine hydrochloride (Demerol)", J. Pharmacol. Exp. Ther. 80, 300-307,1944. The respective description is hereby incorporated by reference and forms part of the present disclosure.
(§8) The mice are placed on a hot plate (Harvard Analgesimeter) at 55 ± 0.5 °C until they show a painful sensation by licking their paws or jumping and the time for these sensations to occur is recorded. This reading is considered the basal value (B). The maximum time limit the mice are allowed to remain on the hot plate in absence of any painful response is 40 seconds in order to prevent skin damage. This period is called the cut-off time (PC).
(§9) Fifteen minuts after the administration of the substance to be tested, the mice are again placed on the hot plate and the afore described procedure is repeated. This period is called the post-treatment reading (PT).
(§10) The degree of analgesia is calculated from the formula : %MPEof Analgesia = (PT−B)/(PC−B) × 100 [formula] MPE = Maximum possible effect.
(§11) Sedation and ataxia is determined according to the method described in Desmet L. K. C. et al. "Anticonvulsive properties of Cinarizine and Flunarizine in Rats and Mice", Arzneim. -Forsch. (Frug Res) 25, 9, 1975. The respective description is hereby incorporated by reference and forms part of the present disclosure.
The chosen scoring system is • 0: no ataxia; • 1: doubful; • 2: obvious calmness and quiet; • 3 pronounced ataxia; • prior to as well as after treatment. […]

[4] = biological target: T1, transfected human CB2 receptors (Homo sapiens, UniProt P34972); experiment: In-vitro determination of affinity to CB2 receptor (radioligand [3H]-CP55940); type: binding
T1 construct: purchased Receptor Biology, Inc
T1 sequence (P34972 whole entry): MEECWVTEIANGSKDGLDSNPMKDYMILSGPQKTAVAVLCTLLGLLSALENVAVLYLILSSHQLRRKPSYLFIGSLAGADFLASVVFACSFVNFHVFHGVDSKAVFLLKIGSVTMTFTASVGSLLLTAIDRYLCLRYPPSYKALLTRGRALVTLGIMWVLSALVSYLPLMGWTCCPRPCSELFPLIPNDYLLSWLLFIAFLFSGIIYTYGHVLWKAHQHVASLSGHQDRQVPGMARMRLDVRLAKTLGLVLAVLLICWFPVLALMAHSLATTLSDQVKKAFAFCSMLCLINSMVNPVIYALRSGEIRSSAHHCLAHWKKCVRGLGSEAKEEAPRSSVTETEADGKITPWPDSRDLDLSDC
Description: (§12) I. In-vitro determination of affinity to CB1/CB2-Receptors
(§13) The in-vitro determination of the affinity of the inventive substituted pyrazoline compounds to CB1/CB2-Rezeptors is carried out as described in the publication of Ruth A. Ross, Heather C. Brockie et al., "Agonist-inverse agonist characterization at CB1 and CB2 cannabinoid receptors of L-759633, L759656 and AM630", British Journal of Pharmacology, 126, 665-672, (1999), whereby the transfected human CB1 and CB2 receptors of Receptor Biology, Inc. are used. The radioligand used for both receptors is [^3H]-CP55940. The respective parts of the description is hereby incorporated by reference and forms part of the present disclosure.

[5] = biological target: T2, transfected human CB1 receptors (Homo sapiens, UniProt P21554); experiment: In-vitro determination of affinity to CB1 receptor (radioligand [3H]-CP55940); type: binding
T2 construct: purchased Receptor Biology, Inc
T2 sequence (P21554 whole entry): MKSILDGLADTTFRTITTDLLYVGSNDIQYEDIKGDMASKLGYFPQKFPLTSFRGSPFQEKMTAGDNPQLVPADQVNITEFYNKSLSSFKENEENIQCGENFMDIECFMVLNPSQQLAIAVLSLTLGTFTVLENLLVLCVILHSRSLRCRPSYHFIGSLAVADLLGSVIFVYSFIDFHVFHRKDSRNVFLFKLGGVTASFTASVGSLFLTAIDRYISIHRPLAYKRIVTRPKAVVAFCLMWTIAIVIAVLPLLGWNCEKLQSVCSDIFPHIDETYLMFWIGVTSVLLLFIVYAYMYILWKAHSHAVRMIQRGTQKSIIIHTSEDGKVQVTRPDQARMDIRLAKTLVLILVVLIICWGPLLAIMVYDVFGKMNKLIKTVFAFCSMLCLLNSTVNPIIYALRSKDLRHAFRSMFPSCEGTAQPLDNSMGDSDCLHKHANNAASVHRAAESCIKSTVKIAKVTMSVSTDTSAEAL
Description: as §12, §13

[6] = system: cannabinoid receptors; experiment: Mouse tetrad model, agonistic effect; type: in vivo, Male NMRI mice; design: key to Agonistic effect D: Sedation: % of sedation = mean score (0–3 scale)/3 × 100; settings: 5 mg/kg i.v.
Excerpt: as §1, §2, §3, §4, §5, §6, §7, §8, §9, §10, §11
The chosen scoring system is • 0: no ataxia; • 1: doubful; • 2: obvious calmness and quiet; • 3 pronounced ataxia; • prior to as well as after treatment.
The percentage of sedation is determined according to the formula: %of sedation = arithmetic mean/3 × 100 [formula] […]

| Compound | TG (triglyceride) levels [1] [mmol/L] | Triglicerides, whole blood levels (mg/dl) ([2]; N.S. compared with Group I) | Relative levels ([2]; triglicerides relative to Group I (standard diet = 100%)) [%] | Antagonistic Effect A: Hot-Plate test [3] | Antagonistic Effect B: Hypothermia [3] | Antagonistic Effect C: Catalepsy [3] | Antagonistic Effect D: Sedation [3] | Ki [4] [µM] | Ki [5] [µM] | Agonistic effect A: Hot-Plate test [6] | Agonistic effect B: Hypothermia [6] | Agonistic effect C: Catalepsy [6] | Agonistic effect D: Sedation [6] |
| --- | --- | --- | --- | --- | --- | --- | --- | --- | --- | --- | --- | --- | --- |
| O=C(O)C1=NN(c2ccc(Cl)cc2Cl)C(c2ccc(Cl)cc2)C1 (stereo not shown) [Example 0, 5-(4-chlorophenyl)-1-(2,4-dichlorophenyl)-4,5-dihydro-pyrazole-3-carboxylic acid] | 0.80 ± 0.07 | 67.5 (N.S.) mg/dl | 110.6 |  |  |  |  |  |  |  |  |  |  |
| O=C(NN1CCCCC1)C1=NN(c2ccc(Cl)cc2Cl)C(c2ccc(Cl)cc2)C1 (stereo not shown) [Example 1, N-piperidinyl-5-(4-chlorophenyl)-1-(2,4-dichlorophenyl)-4,5-dihydro-1H-pyrazole-3-carboxamide] |  |  |  | 74 | 100 | 100 | 100 | > 1 | < 0.025 | 0 | 0 | 0 | 0 |
| O=C(C1=NN(c2ccc(Cl)cc2Cl)C(c2ccc(Cl)cc2)C1)N1CCCCC1 (stereo not shown) [Example 5, [5-(4-Chloro-phenyl)-1-(2,4-dichloro-phenyl)-4,5-dihydro-1H-pyrazol-3-yl]-piperidin-1-yl-methanone] |  |  |  | 50 | 40 | 20 | 20 | ~1 |  | 0 | 50 | 0 | 0 |
